Read-outs that look alike come from different tables or passages of the source.
How the values were obtained:
[1] = molecular target: T1, GlgC (Synechocystis sp. PCC 6803, UniProt P52415); assay: continuous GlgC-GlgA1 / pyruvate kinase / LDH coupled assay, A340; type: biochemical; conditions: read-out: 3-PGA (mM) / 0.00
T1 construct: shorter variant lacking first 10 residues of P52414, starts VKRVLAIILGG (primer 3); N-terminal His-tag (pET28a), E. coli Rosetta-gami (DE3); active as tetramer
T1 sequence (P52415 11-439): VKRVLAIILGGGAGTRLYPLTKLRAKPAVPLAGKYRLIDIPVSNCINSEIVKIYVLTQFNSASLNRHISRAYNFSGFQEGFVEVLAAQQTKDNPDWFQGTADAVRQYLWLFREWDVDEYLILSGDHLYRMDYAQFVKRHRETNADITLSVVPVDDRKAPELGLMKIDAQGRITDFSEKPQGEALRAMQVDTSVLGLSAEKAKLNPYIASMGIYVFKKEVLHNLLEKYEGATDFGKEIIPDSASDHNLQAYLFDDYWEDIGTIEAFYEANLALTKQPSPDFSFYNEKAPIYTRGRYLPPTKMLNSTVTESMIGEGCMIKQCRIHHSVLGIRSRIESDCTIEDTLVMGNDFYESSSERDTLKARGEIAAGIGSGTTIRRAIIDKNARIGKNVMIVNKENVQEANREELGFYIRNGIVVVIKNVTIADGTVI

[2] = molecular target: T1, GlgC; assay: as above; type: biochemical

O=P(O)(O)O [Pi]
IC50 [1]: 0.42 mM

O=P(O)(O)OC[C@H]1OC(O)(CO)[C@@H](O)[C@@H]1O (stereo partly drawn) [Fru-6P]
EC50 ([2]; activator, no 3-PGA, 0.25 mM Glc-1P, 2 mM ATP, 12 mM MgCl2, pH 8.0, 30 °C): 2.3 mM

O=C(O)[C@H](O)COP(=O)(O)O [3-PGA]
EC50 [2]: 0.43 mM
